These results are taken from patent publication US8828907B2, “Active ingredient combinations having insecticidal and acaricidal properties” (Bayer CropScience AG, priority 2009, dated 2014).

Each structure is given as a SMILES string.

What all share (type): in vivo
Holding throughout (conditions): single active compound

Experiment [1] relates to green peach aphid (Myzus persicae). In words: Myzus persicae test (spray on infested cabbage leaves). Here is the method:
(§1) Solvents: 78 parts by weight of acetone • • 1.5 parts by weight of dimethylformamide
(§2) Emulsifier: 0.5 part by weight of alkylaryl polyglycol ether
(§3) To produce a suitable preparation of active compound, 1 part by weight of active compound is mixed with the stated amount of solvent and emulsifier, and the concentrate is diluted with emulsifier-containing water to the desired concentration.
Cabbage leaves (Brassica oleracea) which are heavily infested by the green peach aphid (Myzus persicae) are treated by spraying with the active compound preparation of the desired concentration.
After the desired period of time, the kill in % is determined. 100% means that all of the aphids have been killed; 0% means that none of the aphids have been killed. The kill rates determined are entered into Colby's formula (see above).

The subject of experiment [2] is larvae of the mustard beetle (Phaedon cochleariae). In words: Phaedon cochleariae larvae test (sprayed cabbage leaves). On the procedure: as §1, §2, §3
Cabbage leaves (Brassica oleracea) are treated by spraying with the active ingredient formulation of the desired concentration and populated with larvae of the mustard beetle (Phaedon cochleariae) while the leaves are still moist.
After the desired period of time, the kill in % is determined. 100% means that all beetle larvae have been killed; 0% means that none of the beetle larvae have been killed. The kill rates determined are entered into Colby's formula (see above).

In experiment [3] the test system is larvae of the armyworm (Spodoptera frugiperda). In words: Spodoptera frugiperda larvae test (sprayed cabbage leaves). On the procedure:
as §1, §2, §3
Cabbage leaves (Brassica oleracea) are treated by being sprayed with the preparation of active compound of the desired concentration and are populated with larvae of the armyworm (Spodoptera frugiperda) while the leaves are still moist.
After the desired period of time, the kill in % is determined. 100% means that all caterpillars have been killed; 0% means that none of the caterpillars have been killed. The kill rates determined are entered into Colby's formula (see above).

Experiment [4] deals with greenhouse red spider mite (Tetranychus urticae). In words: Tetranychus urticae test (OP-resistant/spray treatment). Here is the method:
as §1, §2, §3
Discs of bean leaves (Phaseolus vulgaris) which are infested by all stages of the greenhouse red spider mite (Tetranychus urticae) are sprayed with an active compound preparation of the desired concentration.
After the desired period of time, the effect in % is determined. 100% means that all of the spider mites have been killed; 0% means that none of the spider mites have been killed.

With `O=C(NC(=O)c1c(F)cccc1F)Nc1ccc(Oc2ccc(C(F)(F)F)cc2Cl)cc1F` [flufenoxuron, reference compound], the “Kill in % after 1d” value in experiment [1] (0.8 g/ha) and in experiment [1] (4 g/ha) was 0% throughout. Moreover, the “Kill in % after 2d” value stood at 0% in experiment [2] (100 g/ha) and 33% in experiment [3] (0.8 g/ha). Besides, the “Kill in % after 6d” value in experiment [4] (20 g/ha) amounted to 0%.
`COc1cccc(C(=O)NN(C(=O)c2cc(C)cc(C)c2)C(C)(C)C)c1C` [methoxyfenozide, reference compound]: in experiment [1] (4 g/ha), the “Kill in % after 1d” value turned out to be 0%. Besides, the “Kill in % after 2d” value in experiment [3] (4 g/ha) is on record as 33%; in experiment [3] (20 g/ha), 83%. For the same compound, in experiment [4] (100 g/ha), the “Kill in % after 6d” value is 0%.
On to `O=C1C=C(N(Cc2ccc(Cl)nc2)CC(F)F)CO1` [compound (I-5), 4-{[(6-chloropyrid-3-yl)methyl](2,2-difluoroethyl)amino}furan-2(5H)-one], for which the “Kill in % after 2d” value in experiment [2] (4 g/ha), in experiment [2] (100 g/ha), in experiment [3] (0.8 g/ha) and in experiment [3] (4 g/ha) was 0% each time. Further, the “Kill in % after 6d” value in experiment [4] (20 g/ha) and in experiment [4] (100 g/ha) was 0% each time.
Regarding `O=C(NC(=O)c1c(F)cccc1F)Nc1cc(Cl)c(OC(F)(F)C(F)C(F)(F)F)cc1Cl` (stereo not drawn) [lufenuron, reference compound], the “Kill in % after 1d” value in experiment [1] (4 g/ha) is on record as 0%. Besides, the “Kill in % after 2d” value in experiment [2] (100 g/ha) was found to be 17%.
As for `O=C1C=C(N(CCF)Cc2ccc(Cl)nc2)CO1` [compound (I-4), 4-{[(6-chloropyrid-3-yl)methyl](2-fluoroethyl)amino}furan-2(5H)-one], the “Kill in % after 1d” value in experiment [1] (4 g/ha) was 30%. Further, the “Kill in % after 2d” value in experiment [2] (4 g/ha), in experiment [2] (100 g/ha), in experiment [3] (0.16 g/ha), in experiment [3] (0.8 g/ha) and in experiment [3] (20 g/ha) was 0% throughout. Further, the “Kill in % after 6d” value in experiment [4] (20 g/ha) was 0%.
On to `CN(Cc1cnc(Cl)c(F)c1)C1=CC(=O)OC1` [compound (I-6), 4-{[(6-chloro-5-fluorpyrid-3-yl)methyl](methyl)amino}furan-2(5H)-one], for which the “Kill in % after 1d” value in experiment [1] (0.8 g/ha) came out at 70%. For the same compound, the “Kill in % after 2d” value in experiment [2] (100 g/ha), in experiment [3] (0.8 g/ha) and in experiment [3] (20 g/ha) was 0% throughout.
As for `O=C(NC(=O)c1ccccc1Cl)Nc1ccc(OC(F)(F)F)cc1` [triflumuron, reference compound], the “Kill in % after 1d” value in experiment [1] (0.8 g/ha) and in experiment [1] (4 g/ha) was 0% each time. Besides, the “Kill in % after 2d” value in experiment [2] (4 g/ha) is listed as 0%; in experiment [3] (0.16 g/ha), 50%; in experiment [3] (0.8 g/ha), 33%.
